Several values for one entry are separate records, joined by “and”; a condition that tells them apart may be missing. Equal entries are not always repeated.
What was measured:
barnyard grass (Eo) [1] = assay: Test Example 1: herbicidal effects by flooded paddy field treatment; type: in vivo; parameters: herbicidal effects, Eo (barnyard grass):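 0-5 growth inhibition grade; 5 = over 90%; 4 = 70-90%; 3 = 50-70%; 2 = 30-50%; 1 = 10-30%; 0 = under 10%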; conditions: for Herbicidal effect index, Eo: dose 100 gai/10a, examined on 21st day after treatment, index 0-5 per Table 44; for herbicidal effects, Eo (barnyard grass): dose 100 g active ingredient per 10 ares, examined on the 21st day after treatment, standards of Table 44;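 on Herbicidal effect index, Eo: 0-5 growth inhibition grade; 5 = over 90%; 4 = 70-90%; 3 = 50-70%; 2 = 30-50%; 1 = 10-30%; 0 = under 10%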
Outline: (§1)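 Pots hold puddled paddy soil; seeds are sown and the pots flooded 3 cm deep. Next day, diluted wettable powder goes dropwise onto the water at a dose of 100 g active ingredient per 10 ares, and herbicidal effects are rated after 21 days in a greenhouse.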

monochoria (Mo) [2] = assay: as above; type: in vivo; parameters: herbicidal effects, Mo (monochoria):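 0-5 growth inhibition grade; 5 = over 90%; 4 = 70-90%; 3 = 50-70%; 2 = 30-50%; 1 = 10-30%; 0 = under 10%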; conditions: for Herbicidal effect index, Mo: dose 100 gai/10a, examined on 21st day after treatment, index 0-5 per Table 44; for herbicidal effects, Mo (monochoria): dose 100 g active ingredient per 10 ares, examined on the 21st day after treatment, standards of Table 44
Outline: as §1

barnyard grass (Ec) [3] = assay: Test Example 2: herbicidal effects by upland soil treatment; type: in vivo; parameters: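 0-5 growth inhibition grade; 5 = over 90%; 4 = 70-90%; 3 = 50-70%; 2 = 30-50%; 1 = 10-30%; 0 = under 10%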; conditions: dose 100 g active ingredient per 10 ares, examined on the 21st day after treatment; for herbicidal effects, Ec (barnyard grass): standards of Table 44
Outline: (§2)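 Pre-emergence test: barnyard grass and green foxtail sown in upland soil, then soil surface sprayed with wettable-powder formulation at 100 g active ingredient per 10 ares (100 l per 10 ares). Grown in greenhouse; herbicidal effect scored on a rating scale 21 days after treatment.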

green foxtail (Se) = assay: as above; type: in vivo; conditions: dose 100 g active ingredient per 10 ares, examined on the 21st day after treatment, standards of Table 44;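 further: 0-5 growth inhibition grade; 5 = over 90%; 4 = 70-90%; 3 = 50-70%; 2 = 30-50%; 1 = 10-30%; 0 = under 10%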
Outline: as §2

barnyard grass (Ec) [4] = assay: Test Example 3: herbicidal effects by foliage treatment in upland field; type: in vivo; parameters: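 0-5 growth inhibition grade; 5 = over 90%; 4 = 70-90%; 3 = 50-70%; 2 = 30-50%; 1 = 10-30%; 0 = under 10%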; conditions: dose 100 g active ingredient per 10 ares, examined on the 14th day after treatment
Outline: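 Barnyard grass and green foxtail were grown in upland soil for 2 weeks in a greenhouse. A water-diluted wettable powder was sprayed over the foliage at 100 l per 10 ares, giving 100 g active ingredient per 10 ares. Herbicidal effect was scored on day 14 after treatment.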

barnyard grass (Eo) [5] = assay: Test Example 4: selectivity for a crop plant by flooded paddy field treatment; type: in vivo; parameters: scale not given here; conditions: for Eo (herbicidal effect index): barnyard grass, dose 25 gai/10a, 21st day after treatment, index per Table 44; for Eo (herbicidal effects, index): dose 25 g active ingredient per 10 ares, examined on the 21st day after treatment
Outline: (§3)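 Rice at the second-leaf stage is transplanted into puddled, 3 cm-flooded paddy soil alongside sown weed seeds, and a diluted wettable powder is dripped onto the water surface the following day at 25 g a.i./10 ares. Effects are rated 21 days later.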

monochoria (Mo) [6] = assay: as above; type: in vivo; parameters: scale not given here; conditions: for Mo (herbicidal effect index): monochoria, dose 25 gai/10a, 21st day after treatment, index per Table 44; for Mo (herbicidal effects, index): dose 25 g active ingredient per 10 ares, examined on the 21st day after treatment
Outline: as §3

rice (Or) = assay: as above; type: in vivo; parameters: scale not given here; conditions: rice transplanted at second leaf stage; for Or (herbicidal effect index on crop): dose 25 gai/10a, 21st day after treatment, index per Table 44; for Or (effect on crop plant rice, index): dose 25 g active ingredient per 10 ares, examined on the 21st day after treatment
Outline: as §3

barnyard grass (Ec) [7] = assay: Test Example 5: selectivity for a crop plant by soil treatment in upland field; type: in vivo; parameters: scale not given here; conditions: dose 25 gai/10a, 21st day after treatment, index per Table 44
Outline: (§4)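 Upland soil in pots was sown with barnyard grass, green foxtail, soybean, wheat and corn. A diluted wettable powder was sprayed onto the soil surface (100 l per 10 ares) at 25 g active ingredient per 10 ares. Herbicidal effect was scored against a rating standard 21 days after treatment, with plants grown in a greenhouse.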

corn (Ze) = assay: as above; type: in vivo; parameters: scale not given here; conditions: dose 25 gai/10a, 21st day after treatment, index per Table 44
Outline: as §4

soybean (G1) = assay: as above; type: in vivo; parameters: scale not given here; conditions: dose 25 gai/10a, 21st day after treatment, index per Table 44
Outline: as §4

wheat (Tr) = assay: as above; type: in vivo; parameters: scale not given here; conditions: dose 25 gai/10a, 21st day after treatment, index per Table 44
Outline: as §4
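Wherever Herbicidal effect index, Mo is given: 0-5 growth inhibition grade; 5 = over 90%; 4 = 70-90%; 3 = 50-70%; 2 = 30-50%; 1 = 10-30%; 0 = under 10%.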

| SMILES | Herbicidal effect index, Eo (barnyard grass (Eo) [1]) | Herbicidal effect index, Mo (monochoria (Mo) [2]) | herbicidal effects, Ec (barnyard grass) (barnyard grass (Ec) [3]) | herbicidal effects, Se (green foxtail) (green foxtail (Se)) | melting point | herbicidal effects, Eo (barnyard grass) (barnyard grass (Eo) [1]) | herbicidal effects, Mo (monochoria) (monochoria (Mo) [2]) | Ec (herbicidal effects, index) (barnyard grass (Ec) [3]) | Ec (herbicidal effects, index) (barnyard grass (Ec) [4]) | Eo (herbicidal effect index) (barnyard grass (Eo) [5]) | Mo (herbicidal effect index) (monochoria (Mo) [6]) | Or (herbicidal effect index on crop) (rice (Or)) | Eo (herbicidal effects, index) (barnyard grass (Eo) [5]) | Mo (herbicidal effects, index) (monochoria (Mo) [6]) | Or (effect on crop plant rice, index) (rice (Or)) | Ec (herbicidal effect index) (barnyard grass (Ec) [7]) | Ze (herbicidal effect index on crop) (corn (Ze)) | Gl (herbicidal effect index on crop) (soybean (G1)) | Tr (herbicidal effect index on crop) (wheat (Tr)) |
| --- | --- | --- | --- | --- | --- | --- | --- | --- | --- | --- | --- | --- | --- | --- | --- | --- | --- | --- | --- |
| COCN(C(=O)Cc1ccc(Cl)cc1)C(c1cncnc1C(F)(F)F)C(C)C (stereo not drawn) [Compound 1-105, N-methoxymethyl-N-[2-methyl-1-(4-trifluoromethylpyrimidin-5-yl)propyl]-4-chlorophenylacetamide] | 5 | 5 | 5 | 5 | 142 to 145 °C |  |  |  |  |  |  |  |  |  |  |  |  |  |  |
| CC(C)C(c1cncnc1C(F)(F)F)N(C)C(=O)N(C)c1ccccc1 (stereo not drawn) [Compound 1-424, 1,3-dimethyl-1-[2-methyl-1-(4-trifluoromethyl-pyrimidin-5-yl)-propyl]-3-phenylurea] |  |  |  |  | 104 to 105 °C | 5 | 5 | 5 | 4 |  |  |  |  |  |  |  |  |  |  |
| CC(C)C(c1cncnc1C#N)N(C)C(=O)Cc1ccccc1 (stereo not drawn) [Compound 1-504, N-[1-(4-cyanopyrimidin-5-yl)-2-methylpropyl]-N-methylphenylacetamide] |  |  |  |  | 80 to 81 °C | 5 | 5 | 5 | 5 | 5 | 5 | 1 |  |  |  |  |  |  |  |
| CC(C)C(c1cncnc1C(F)(F)F)N(C)C(=O)Cc1ccccn1 (stereo not drawn) [Compound 2-3, N-methyl-N-[2-methyl-1-(4-trifluoromethylpyrimidin-5-yl)propyl]-2-pyridylacetamide] |  |  |  |  | 99 to 100 °C | 5 | 5 |  |  |  |  |  |  |  |  |  |  |  |  |
| CC(C)C(c1cncnc1C(F)(F)F)N(C(=O)Cc1ccc(Cl)cc1)C1CC1 (racemic) [Compound 1-81] | 5 | 5 | 5 | 5 |  |  |  |  | 4 |  |  |  | 5 | 5 | 0 | 4 | 0 | 0 | 1 |
| CC(C)C(c1cncnc1C(F)(F)F)N(C)C(=O)N(C)Cc1ccc(Cl)cc1 (stereo not drawn) [Compound 1-532, 1-(4-chlorobenzyl)-1,3-dimethyl-3-[2-methyl-1-(4-trifluoromethyl-pyrimidin-5-yl)-propyl]-urea] |  |  |  |  | 95 to 98 °C and 95 to 96 °C | 5 | 5 | 5 | 5 | 5 | 5 | 1 |  |  |  |  |  |  |  |
| CCN(C(=O)Cc1ccc(C#N)cc1)C(c1cncnc1C(F)(F)F)C(C)C (racemic) [Compound 1-98] | 5 | 5 | 5 | 5 |  |  |  |  | 4 |  |  |  | 5 | 5 | 1 | 4 | 1 | 0 | 1 |
| CC(C)C(c1cncnc1C1CC1)N(C)C(=O)Cc1ccc(Cl)cc1 (racemic) [Compound 1-78] | 5 | 5 | 5 | 5 |  |  |  |  | 5 |  |  |  | 5 | 5 | 1 | 5 | 0 | 0 | 1 |
| CC(C)C(c1cncnc1C=NO)N(C)C(=O)Cc1ccccc1 (stereo not drawn) [Compound 1-500, N-[1-(4-hydroxyiminomethylpyrimidin-5-yl)-2-methylpropyl]-N-methylphenylacetamide] |  |  |  |  | 171 to 172 °C | 5 | 5 |  |  |  |  |  |  |  |  |  |  |  |  |
| CN(C(=O)Cc1ccc(F)cc1)C(c1cncnc1C(F)(F)F)C(C)(C)C (racemic) [Compound 1-53] | 5 | 5 | 5 | 5 |  |  |  |  | 4 |  |  |  | 5 | 5 | 1 | 4 | 0 | 1 | 2 |
| CC(C(=O)N(C)C(c1cncnc1C(=O)O)C(C)C)c1ccc(Cl)cc1 (single isomer, unassigned) [Compound 1-718, 5-(1-{[2-(4-chlorophenyl)-propionyl]methylamino}-2-methylpropyl)-pyrimidine-4-carboxylic acid] |  |  |  |  | 168 to 170 °C |  |  |  |  |  |  |  |  |  |  |  |  |  |  |
| Cc1ccc(CC(=O)N(C)C(c2cncnc2C(F)(F)F)C(C)(C)C)cc1 (racemic) [Compound 1-55] | 5 | 5 | 5 | 5 |  |  |  |  | 4 |  |  |  | 5 | 5 | 1 | 5 | 0 | 1 | 1 |
| CCC(C)C(c1cncnc1C(F)(F)F)N(C)C(=O)Cc1ccc(C)cc1 (mixture of isomers) [Compound 1-60] | 5 | 5 | 5 | 5 |  |  |  |  | 4 |  |  |  | 5 | 5 | 1 | 5 | 0 | 1 | 2 |
